Source: ChEMBL document CHEMBL3046607, “Synthesis and Herbicidal Activity of New 1-Alkyl-3-aryloxypyrazole-4-carboxamide Derivatives” (J Pestic Sci, 2004)
The source made the active and inactive calls. The rule behind the calls is not given here.

How the values were obtained:
Echinochloa oryzicola [1] = test: Pre-emergence herbicidal activity against Echinochloa oryzicola at 33 g a.i/ha measured after 14 days; type: functional, organism-based
[2] = test system: Schoenoplectiella juncoides; test: Post-emergence herbicidal activity against Schoenoplectiella juncoides assessed as bleaching of stem/leaf parts; type: functional, organism-based; also: test concentration or dose not given here
Pontederia vaginalis [3] = test: Pre-emergence herbicidal activity against Monochoria vaginalis assessed as bleaching of stem/leaf parts; type: functional, organism-based
Lindernia procumbens [4] = test: Post-emergence herbicidal activity against Lindernia procumbens assessed as bleaching of stem/leaf parts; type: functional, organism-based; also: test concentration or dose not given here
Cyperus difformis [5] = test: Post-emergence herbicidal activity against Cyperus difformis assessed as bleaching of stem/leaf parts; type: functional, organism-based; also: test concentration or dose not given here
Elatine triandra [6] = test: Post-emergence herbicidal activity against Elatine triandra assessed as bleaching of stem/leaf parts; type: functional, organism-based; also: test concentration or dose not given here
Rotala indica [7] = test: Pre-emergence herbicidal activity against Rotala indica assessed as bleaching of stem/leaf parts; type: functional, organism-based
Cyperus difformis [8] = test: Pre-emergence herbicidal activity against Cyperus difformis assessed as bleaching of stem/leaf parts; type: functional, organism-based
Lindernia procumbens [9] = test: Pre-emergence herbicidal activity against Lindernia procumbens assessed as bleaching of stem/leaf parts; type: functional, organism-based
Cyperus difformis [10] = test: Pre-emergence herbicidal activity against Cyperus difformis at 33 g a.i/ha measured after 14 days; type: functional, organism-based
Lindernia procumbens [11] = test: Pre-emergence herbicidal activity against Lindernia procumbens at 33 g a.i/ha measured after 14 days; type: functional, organism-based
Echinochloa oryzicola [12] = test: Post-emergence herbicidal activity against Echinochloa oryzicola assessed as bleaching of stem/leaf parts; type: functional, organism-based
Rotala indica [13] = test: Post-emergence herbicidal activity against Rotala indica assessed as bleaching of stem/leaf parts; type: functional, organism-based
[14] = test system: Schoenoplectiella juncoides; test: Pre-emergence herbicidal activity against Schoenoplectiella juncoides assessed as bleaching of stem/leaf parts; type: functional, organism-based
Pontederia vaginalis [15] = test: Pre-emergence herbicidal activity against Monochoria vaginalis at 33 g a.i/ha measured after 14 days; type: functional, organism-based
Ammannia multiflora [16] = test: Pre-emergence herbicidal activity against Ammannia multiflora assessed as bleaching of stem/leaf parts; type: functional, organism-based
Oryza sativa = test: Phytotoxicity against Oryza sativa cv. Koshihikari (rice) at 33 g a.i/ha measured after 14 days; type: organism-based; conditions: in vivo, 336 h
Ammannia multiflora [17] = test: Post-emergence herbicidal activity against Ammannia multiflora assessed as bleaching of stem/leaf parts; type: functional, organism-based
[18] = test system: Schoenoplectiella juncoides; test: Pre-emergence herbicidal activity against Schoenoplectiella juncoides at 33 g a.i/ha measured after 14 days; type: functional, organism-based
Elatine triandra [19] = test: Pre-emergence herbicidal activity against Elatine triandra assessed as bleaching of stem/leaf parts; type: functional, organism-based
Rotala indica [20] = test: Pre-emergence herbicidal activity against Rotala indica at 33 g a.i/ha measured after 14 days; type: functional, organism-based
Echinochloa oryzicola [21] = test: Pre-emergence herbicidal activity against Echinochloa oryzicola assessed as bleaching of stem/leaf parts; type: functional, organism-based
Pontederia vaginalis [22] = test: Post-emergence herbicidal activity against Monochoria vaginalis assessed as bleaching of stem/leaf parts; type: functional, organism-based
Elatine triandra [23] = test: Pre-emergence herbicidal activity against Elatine triandra at 33 g a.i/ha measured after 14 days; type: functional, organism-based
Ammannia multiflora [24] = test: Pre-emergence herbicidal activity against Ammannia multiflora at 33 g a.i/ha measured after 14 days; type: functional, organism-based

Cc1ccccc1NC(=O)c1cn(C)nc1Oc1cccc(C(F)(F)F)c1
Activity (Echinochloa oryzicola [1]): inactive | Activity [2]: Active | Activity (Pontederia vaginalis [3]): Active | Activity (Lindernia procumbens [4]): Active | Activity (Cyperus difformis [5]): Active | Activity (Elatine triandra [6]): Active | Activity (Rotala indica [7]): Active | Activity (Cyperus difformis [8]): Active | Activity (Lindernia procumbens [9]): Active | Activity (Cyperus difformis [10]): Active | Activity (Lindernia procumbens [11]): Active | Activity (Echinochloa oryzicola [12]): Active | Activity (Rotala indica [13]): Active | Activity [14]: Active | Activity (Pontederia vaginalis [15]): Active | Activity (Ammannia multiflora [16]): Active | Activity (Oryza sativa): Non-toxic | Activity (Ammannia multiflora [17]): Active | Activity [18]: inactive | Activity (Elatine triandra [19]): Active | Activity (Rotala indica [20]): Active | Activity (Echinochloa oryzicola [21]): Active | Activity (Pontederia vaginalis [22]): Active | Activity (Elatine triandra [23]): Active | Activity (Ammannia multiflora [24]): Active

Cn1cc(C(=O)Nc2ccc(Cl)cc2Cl)c(Oc2cccc(C(F)(F)F)c2)n1
Activity (Echinochloa oryzicola [1]): inactive | Activity [2]: Active | Activity (Pontederia vaginalis [3]): Active | Activity (Lindernia procumbens [4]): Active | Activity (Cyperus difformis [5]): Active | Activity (Elatine triandra [6]): Active | Activity (Rotala indica [7]): Active | Activity (Cyperus difformis [8]): Active | Activity (Lindernia procumbens [9]): Active | Activity (Cyperus difformis [10]): Active | Activity (Lindernia procumbens [11]): Active | Activity (Echinochloa oryzicola [12]): Active | Activity (Rotala indica [13]): Active | Activity [14]: Active | Activity (Pontederia vaginalis [15]): Active | Activity (Ammannia multiflora [16]): Active | Activity (Oryza sativa): Non-toxic | Activity (Ammannia multiflora [17]): Active | Activity [18]: inactive | Activity (Elatine triandra [19]): Active | Activity (Rotala indica [20]): Active | Activity (Echinochloa oryzicola [21]): Active | Activity (Pontederia vaginalis [22]): Active | Activity (Elatine triandra [23]): Active | Activity (Ammannia multiflora [24]): Active

CCCCn1cc(C(=O)Nc2ccc(F)cc2F)c(Oc2cccc(C(F)(F)F)c2)n1
Activity (Echinochloa oryzicola [1]): inactive | Activity [2]: Active | Activity (Pontederia vaginalis [3]): Active | Activity (Lindernia procumbens [4]): Active | Activity (Cyperus difformis [5]): Active | Activity (Elatine triandra [6]): Active | Activity (Rotala indica [7]): Active | Activity (Cyperus difformis [8]): Active | Activity (Lindernia procumbens [9]): Active | Activity (Cyperus difformis [10]): inactive | Activity (Lindernia procumbens [11]): inactive | Activity (Echinochloa oryzicola [12]): Active | Activity (Rotala indica [13]): Active | Activity [14]: Active | Activity (Pontederia vaginalis [15]): inactive | Activity (Ammannia multiflora [16]): Active | Activity (Oryza sativa): Non-toxic | Activity (Ammannia multiflora [17]): Active | Activity [18]: inactive | Activity (Elatine triandra [19]): Active | Activity (Rotala indica [20]): inactive | Activity (Echinochloa oryzicola [21]): Active | Activity (Pontederia vaginalis [22]): Active | Activity (Elatine triandra [23]): inactive | Activity (Ammannia multiflora [24]): inactive

CCCn1cc(C(=O)Nc2ccc(F)cc2F)c(Oc2cccc(C(F)(F)F)c2)n1
Activity (Echinochloa oryzicola [1]): inactive | Activity [2]: Active | Activity (Pontederia vaginalis [3]): Active | Activity (Lindernia procumbens [4]): Active | Activity (Cyperus difformis [5]): Active | Activity (Elatine triandra [6]): Active | Activity (Rotala indica [7]): Active | Activity (Cyperus difformis [8]): Active | Activity (Lindernia procumbens [9]): Active | Activity (Cyperus difformis [10]): inactive | Activity (Lindernia procumbens [11]): inactive | Activity (Echinochloa oryzicola [12]): Active | Activity (Rotala indica [13]): Active | Activity [14]: Active | Activity (Pontederia vaginalis [15]): inactive | Activity (Ammannia multiflora [16]): Active | Activity (Oryza sativa): Non-toxic | Activity (Ammannia multiflora [17]): Active | Activity [18]: inactive | Activity (Elatine triandra [19]): Active | Activity (Rotala indica [20]): inactive | Activity (Echinochloa oryzicola [21]): Active | Activity (Pontederia vaginalis [22]): Active | Activity (Elatine triandra [23]): inactive | Activity (Ammannia multiflora [24]): inactive

Cn1cc(C(=O)Nc2cccc(F)c2F)c(Oc2cccc(C(F)(F)F)c2)n1
Activity (Echinochloa oryzicola [1]): inactive | Activity [2]: Active | Activity (Pontederia vaginalis [3]): Active | Activity (Lindernia procumbens [4]): Active | Activity (Cyperus difformis [5]): Active | Activity (Elatine triandra [6]): Active | Activity (Rotala indica [7]): Active | Activity (Cyperus difformis [8]): Active | Activity (Lindernia procumbens [9]): Active | Activity (Cyperus difformis [10]): Active | Activity (Lindernia procumbens [11]): Active | Activity (Echinochloa oryzicola [12]): Active | Activity (Rotala indica [13]): Active | Activity [14]: Active | Activity (Pontederia vaginalis [15]): Active | Activity (Ammannia multiflora [16]): Active | Activity (Oryza sativa): Non-toxic | Activity (Ammannia multiflora [17]): Active | Activity [18]: inactive | Activity (Elatine triandra [19]): Active | Activity (Rotala indica [20]): Active | Activity (Echinochloa oryzicola [21]): Active | Activity (Pontederia vaginalis [22]): Active | Activity (Elatine triandra [23]): Active | Activity (Ammannia multiflora [24]): Active

Cn1cc(C(=O)Nc2ccc(F)cc2F)c(Oc2ccc(Br)c(C(F)(F)F)c2)n1
Activity (Echinochloa oryzicola [1]): inactive | Activity [2]: Active | Activity (Pontederia vaginalis [3]): Active | Activity (Lindernia procumbens [4]): Active | Activity (Cyperus difformis [5]): Active | Activity (Elatine triandra [6]): Active | Activity (Rotala indica [7]): Active | Activity (Cyperus difformis [8]): Active | Activity (Lindernia procumbens [9]): Active | Activity (Cyperus difformis [10]): Active | Activity (Lindernia procumbens [11]): Active | Activity (Echinochloa oryzicola [12]): Active | Activity (Rotala indica [13]): Active | Activity [14]: Active | Activity (Pontederia vaginalis [15]): Active | Activity (Ammannia multiflora [16]): Active | Activity (Oryza sativa): Non-toxic | Activity (Ammannia multiflora [17]): Active | Activity [18]: inactive | Activity (Elatine triandra [19]): Active | Activity (Rotala indica [20]): Active | Activity (Echinochloa oryzicola [21]): Active | Activity (Pontederia vaginalis [22]): Active | Activity (Elatine triandra [23]): Active | Activity (Ammannia multiflora [24]): Active

Cn1cc(C(=O)Nc2ccc(F)c(F)c2F)c(Oc2cccc(C(F)(F)F)c2)n1
Activity (Echinochloa oryzicola [1]): Active | Activity [2]: Active | Activity (Pontederia vaginalis [3]): Active | Activity (Lindernia procumbens [4]): Active | Activity (Cyperus difformis [5]): Active | Activity (Elatine triandra [6]): Active | Activity (Rotala indica [7]): Active | Activity (Cyperus difformis [8]): Active | Activity (Lindernia procumbens [9]): Active | Activity (Lindernia procumbens [11]): Active | Activity (Echinochloa oryzicola [12]): Active | Activity (Rotala indica [13]): Active | Activity [14]: Active | Activity (Pontederia vaginalis [15]): Active | Activity (Ammannia multiflora [16]): Active | Activity (Oryza sativa): Non-toxic | Activity (Ammannia multiflora [17]): Active | Activity [18]: Active | Activity (Elatine triandra [19]): Active | Activity (Rotala indica [20]): Active | Activity (Echinochloa oryzicola [21]): Active | Activity (Pontederia vaginalis [22]): Active | Activity (Elatine triandra [23]): Active | Activity (Ammannia multiflora [24]): Active
